Laboratory results published in the supplement of paper PMC11451515.

Tested on: P12-Ichikawa
Assay: cell viability relative to DMSO control; higher = less cytotoxic
Conditions: 48 h
Method in brief: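 NOMO1 or SEM (500 cells/well) or P12-Ichikawa (1000 cells/well) leukemia cells were adapted for at least four passages in each medium. They were seeded in 1536-well plates (5 μl) and pin-dosed with library compounds in DMSO over an 11-point threefold series, 47 μM to 0.79 nM. CellTiter-Glo One luminescence was read after 48 h at 37°C. Viability is the per-plate percentage relative to DMSO wells, with cell-free wells as background.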

[1] = HPLM + 10% dialyzed FBS, 0.000781 µM
[2] = HPLM + 10% dialyzed FBS, 0.00234 µM
[3] = HPLM + 10% dialyzed FBS, 0.00702 µM
[4] = HPLM + 10% dialyzed FBS, 0.0211 µM
[5] = HPLM + 10% dialyzed FBS, 0.0632 µM
[6] = HPLM + 10% dialyzed FBS, 0.19 µM
[7] = HPLM + 10% dialyzed FBS, 0.569 µM
[8] = HPLM + 10% dialyzed FBS, 1.71 µM
[9] = HPLM + 10% dialyzed FBS, 5.12 µM
[10] = HPLM + 10% dialyzed FBS, 15.4 µM
[11] = HPLM + 10% dialyzed FBS, 46.1 µM
[12] = RPMI 5 mM glucose + 10% FBS, 0.000781 µM
[13] = RPMI 5 mM glucose + 10% FBS, 0.00234 µM
[14] = RPMI 5 mM glucose + 10% FBS, 0.00702 µM
[15] = RPMI 5 mM glucose + 10% FBS, 0.0211 µM
[16] = RPMI 5 mM glucose + 10% FBS, 0.0632 µM
[17] = RPMI 5 mM glucose + 10% FBS, 0.19 µM
[18] = RPMI 5 mM glucose + 10% FBS, 0.569 µM
[19] = RPMI 5 mM glucose + 10% FBS, 1.71 µM
[20] = RPMI 5 mM glucose + 10% FBS, 5.12 µM
[21] = RPMI 5 mM glucose + 10% FBS, 15.4 µM
[22] = RPMI 5 mM glucose + 10% FBS, 46.1 µM
[23] = RPMI 5 mM glucose + 10% dialyzed FBS, 0.000781 µM
[24] = RPMI 5 mM glucose + 10% dialyzed FBS, 0.00234 µM
[25] = RPMI 5 mM glucose + 10% dialyzed FBS, 0.00702 µM
[26] = RPMI 5 mM glucose + 10% dialyzed FBS, 0.0211 µM
[27] = RPMI 5 mM glucose + 10% dialyzed FBS, 0.0632 µM
[28] = RPMI 5 mM glucose + 10% dialyzed FBS, 0.19 µM
[29] = RPMI 5 mM glucose + 10% dialyzed FBS, 0.569 µM
[30] = RPMI 5 mM glucose + 10% dialyzed FBS, 1.71 µM
[31] = RPMI 5 mM glucose + 10% dialyzed FBS, 5.12 µM
[32] = RPMI 5 mM glucose + 10% dialyzed FBS, 15.4 µM
[33] = RPMI 5 mM glucose + 10% dialyzed FBS, 46.1 µM

SMILES	cell viability [1]	cell viability [2]	cell viability [3]	cell viability [4]	cell viability [5]	cell viability [6]	cell viability [7]	cell viability [8]	cell viability [9]	cell viability [10]	cell viability [11]	cell viability [12]	cell viability [13]	cell viability [14]	cell viability [15]	cell viability [16]	cell viability [17]	cell viability [18]	cell viability [19]	cell viability [20]	cell viability [21]	cell viability [22]	cell viability [23]	cell viability [24]	cell viability [25]	cell viability [26]	cell viability [27]	cell viability [28]	cell viability [29]	cell viability [30]	cell viability [31]	cell viability [32]	cell viability [33]
O=C1NC(=O)/C(=C/c2ccc3nccnc3c2)S1	111%	111%	117%	107%	115%	122%	102%	116%	103%	97.5%	99.7%	110%	112%	119%	114%	115%	109%	98.7%	106%	95.2%	95.9%	91.4%	110%	111%	126%	123%	114%	113%	115%	102%	96.2%	104%	97.1%
CN1CCc2c(c3ccccc3n2Cc2ccc(C(=O)NO)cc2)C1	84.8%	83.9%	87.7%	89.6%	91.5%	85%	89.6%	83.6%	87.5%	68%	66.9%	81%	77.4%	78.6%	80.7%	84.1%	73.1%	79.9%	83.4%	84.2%	64.1%	56.8%	82.2%	81.3%	83.1%	78.4%	81.9%	78%	83.3%	77.8%	86.5%	63.3%	68.1%
NCCCC(N)(C(=O)O)C(F)F (centres undefined)	116%	116%	113%	117%	118%	110%	113%	112%	108%	101%	98.4%	123%	125%	123%	121%	114%	122%	113%	113%	115%	107%	109%	114%	122%	113%	118%	113%	109%	110%	105%	105%	105%	100%
COc1cc2c(cc1OC)[C@@H]1Cc3ccc(OC)c(OC)c3CN1CC2	110%	114%	114%	113%	118%	117%	112%	106%	112%	99.1%	94.5%												111%	117%	119%	109%	110%	110%	124%	117%	109%	97.2%	80.3%
C[C@@H]1[C@H]\2[C@H](O)[C@H]3[C@H](N(C)C)\C(=C(C(N)=O)/C(=O)[C@@]3(O)\C(=C2C(=O)C4=C(O)C=CC=C14)O)O	114%	122%	125%	127%	129%	126%	131%	129%	127%	126%	113%																						
CC1(C)SCCN([S+](=O)([O-])c2ccc(OCC#CCO)cc2)[C@H]1C(=O)NO	103%	108%	107%	98.9%	104%	103%	98.5%	90.9%	91.2%	93.4%	95.1%	106%	95.5%	101%	98.7%	101%	95.8%	104%	87.5%	87.9%	80.6%	89.2%	97%	97.7%	101%	103%	89.8%	88.3%	88.1%	91.9%	86.9%	85.4%	83.6%
COc1ccc(F)c(F)c1C(=O)c1cnc(NC2CCN([S+](C)(=O)[O-])CC2)nc1N	111%	116%	114%	115%	118%	112%	87.4%	77.6%	86%	67.6%	3.92%	113%	114%	126%	116%	116%	117%	78.3%	72.2%	63.7%	43.2%	4.54%	114%	121%	116%	127%	116%	113%	86.8%	78.2%	58.4%	45.9%	5.54%
CC1(C)CC\C2=C(/O1)C3=C(C=CC=C3)C(=O)C2=O	112%	118%	114%	116%	106%	111%	110%	102%	104%	99.4%	2.4%	113%	106%	94.9%	102%	112%	109%	105%	98.3%	105%	90.5%	0.954%	107%	119%	100%	101%	108%	96.6%	109%	89.2%	102%	94.9%	1.41%
CCC(CCCC)COC(=O)C(\C#N)=C(\c1ccccc1)c2ccccc2 (centres undefined)	95.6%	100%	102%	99.3%	106%	108%	112%	107%	113%	107%	99.3%	89.8%	95.7%	95.2%	96.3%	110%	104%	106%	99.2%	95.2%	102%	94.5%	87.1%	84.2%	97.6%	98.5%	98.8%	97.2%	101%	99.5%	97.3%	99.1%	95.9%
CC(C)C1CCC(C(=O)N[C@H](Cc2ccccc2)C(=O)O)CC1 (some centres undefined)	100%	95.9%	98.9%	103%	95%	99.5%	92.5%	88.2%	93.6%	87.4%	86.9%	94.3%	97.8%	91.9%	96.9%	98.2%	93.7%	84.4%	88.3%	86.3%	83.5%	87.1%	91.1%	95.3%	88.2%	92.3%	90.9%	89.7%	77.7%	86.9%	89.7%	79.9%	84.6%
OC(=O)\C1=C\N(C2CC2)C3=CC(=C(F)C=C3C1=O)N4CCNCC4	110%	114%	114%	111%	112%	112%	115%	113%	96.6%	91.9%	68.7%	102%	104%	115%	108%	112%	113%	115%	100%	104%	92.3%	63.9%	99.4%	106%	113%	111%	112%	108%	113%	114%	99.4%	90.5%	64.7%
Cc1cc(Nc2cc(N3CCN(C)CC3)nc(/C=C/c3ccccc3)n2)n[nH]1	105%	111%	115%	120%	118%	122%	116%	12.1%	5.08%	4.47%	5.23%	113%	108%	113%	117%	121%	125%	119%	41.5%	8.43%	4.4%	4.88%	107%	114%	112%	112%	121%	130%	126%	37.4%	11.6%	5.07%	5.54%
Nc1ccc(C(=O)c2cc3c(ccc4ccccc43)[nH]2)cc1	121%	124%	122%	118%	120%	109%	96.4%	81.4%	31.1%	10.6%	5.96%	118%	112%	115%	118%	112%	108%	102%	77.5%	40.7%	12.9%	8.36%	118%	115%	117%	102%	116%	111%	91%	74.9%	56.6%	13.7%	5.99%
O=C(O)CCCCCC(=O)NN=C1CCCC1	96.2%	103%	99.4%	108%	110%	107%	115%	116%	111%	99.7%	73.2%	89%	103%	104%	113%	105%	112%	106%	120%	104%	112%	105%	85.4%	98.8%	103%	100%	107%	98.1%	113%	99.3%	105%	104%	109%
